From patent publication US20030091510A1, “METHODS FOR TREATING AND PREVENTING ASTHMA AND NON-INVASIVE FUNGUS-INDUCED RHINOSINUSITIS” (priority 1997, published 2003)
Values after ≈ are worked out from the molar mass of the structure shown. Values joined by “and” are separate entries in the source; they are usually repeats but may differ in a detail not shown here. Identical values can stand only once.

Experiments:
Trichoderma = assay: MIC, macro broth dilution technique (NCCLS) on patient fungal isolates; assay type: cell-based; conditions: 48 hour MIC reading; isolate from rhinosinusitis patient
Method: (§1) The following procedure was used to determine effective antifungal agents as well as effective concentrations of antifungal agents such that the fungal organisms isolated from patients can be prevented from growing or killed.
(§2) Seventeen fungal isolates were collected from eight rhinosinusitis patients and tested for susceptibility against amphotericin B, ketoconazole, and itraconazole. Each antifungal agent was tested on these fungal isolates using the macro broth dilution technique according to the National Committee on Clinical Laboratory Standards (NCCLS) protocol. […] The results from this procedure provided an estimate of the efficacy of antifungal agents against specific fungal isolates in vitro.

Geotrichum = assay: as above; assay type: cell-based; conditions: 48 hour MIC reading; isolate from rhinosinusitis patient
Method: as §1, §2

[1] = system: non-invasive fungus-induced rhinosinusitis patient; assay: Eosinophil count in mucosal biopsies after antifungal treatment (Example 4); assay type: in vivo, human; conditions: person
rhinosinusitis patient = assay: Single patient study, one-sided then two-sided amphotericin B irrigation, RAST assay to Alternaria; assay type: in vivo, human
Method: Only the left nasal-paranasal side, however, received surgery as well as intra-operative and post-operative treatment with about 20 mL of an amphotericin B solution (100 mg/L) two to four times daily.

[2] = system: non-invasive fungus-induced rhinosinusitis patients; assay: Amphotericin B nasal irrigation study, three month follow-up (Example 2); assay type: in vivo, human
Text: In addition to patient interviewing, CT scan analysis, visual examination, and fungal culture analysis, two types of evaluations were used to score the success of the treatment: an endoscopic evaluation and a patient symptom evaluation. These evaluations were scored as follows:
(§3) Stage 0: no evidence of disease
(§4) Stage 1: polypoid changes/polyps seen by endoscopy only
(§5) Stage 2: polyps in the middle meatus
(§6) Stage 3: polyps filling the nasal cavity
(§7) Patient Symptom Evaluation
(§8) Stage −2: very bad/much worse
(§9) Stage 0: baseline/no change
(§10) Stage 2: very good/free of symptoms

[3] = system: fungal organisms within their mucus; assay: Examination of mucus samples of non-responding patients for resistance; assay type: cell-based; conditions: five of the nine non-responding patients with available samples, all five
Text: Eleven of the 53 patients went from endoscopic evaluation stage 2 or 3 to stage 1 after three months. […] Five of the nine non-responding patients had previously collected mucus samples that were available for examination.

[4] = system: non-invasive fungus-induced rhinosinusitis patients; assay: Amphotericin B irrigations in patients without previous nasal surgery (Example 3); assay type: in vivo, human; conditions: patient; for symptom score after treatment: score −1 before
Text: A person was diagnosed with non-invasive fungus-induced rhinosinusitis and instructed to perform amphotericin B irrigations twice a day.
A person was diagnosed with non-invasive fungus-induced rhinosinusitis and instructed to perform amphotericin B irrigations twice a day, which was later increased to four times a day.
A person was diagnosed with non-invasive fungus-induced rhinosinusitis and instructed to perform amphotericin B irrigations twice a day. This patient had been given intramuscular steroid shots every 3 to 8 months with the last shot being administered about seven months prior to starting the amphotericin B irrigations.

[5] = system: non-invasive fungus-induced rhinosinusitis patients; assay: Patients returning during a one week period on amphotericin B nasal irrigations (Table II); assay type: in vivo, human; design: key to Endoscopy Score A: endoscopy stage 0 = no disease to 3 = polyps filling nasal cavity; conditions: A = after antifungal treatment, one patient per line
Text: as §3, §4, §5, §6, §7, §8, §9, §10
Only previously seen patients that were instructed to use the antifungal amphotericin B nasal irrigations were entered into this study.
During a one week period, twenty patients returned to the physician's office (Table II). The average age of the returning patients was 47 years (range 16-74 years). The patients were using the amphotericin B irrigations for an average duration of about six months (range 1-16 months). […] In addition, some patients were using topical and systemic steroid therapy. Further, some patients were using an antibiotic nasal irrigation in addition to the antifungal irrigations. The antibacterial solution contained 80 mg gentamicin per L saline (Wilson's solution). Some patients mixed the antibacterial solution with the antifungal solution and then performed the nasal irrigations while others used each solution separately in a sequential manner. Some patients also had other diseases including asthma (15 of the 20 patients) and colitis (2 of the 20 patients).

[6] = system: non-invasive fungus-induced rhinosinusitis patients; assay: Itraconazole nasal irrigations in rhinosinusitis patients (Example 7); assay type: in vivo, human
Method: Three non-invasive fungus-induced rhinosinusitis patients (person, person, and person) were instructed to perform nasal irrigation with an itraconazole solution. The itraconazole solution contained about 100 mg of itraconazole per L of solution (10% PEG-400 in sterile water) and was prepared as described herein. […] Each patient reported marked improvement in symptoms within two weeks of starting the itraconazole irrigations (symptom scores: −1 to +2 and −1 to +1).
After treatment with itraconazole, that patient reported symptom improvement (symptom score: from −1 to 0).

[7] = system: patients with previously diagnosed chronic asthma; assay: Chronic asthma symptoms in patients of the Example 2 study (Example 5); assay type: in vivo, human
Text: One hundred and thirty-two consecutive rhinosinusitis patients were entered into a study to evaluate the use of an antifungal agent to treat non-invasive fungus-induced rhinosinusitis. After diagnostic analysis, 125 of the 132 patients (95%) had the following criteria: (1) presence of observable disease within the nasal-paranasal anatomy as evidenced by a CT scan, (2) presence of allergic mucus as evidenced by histologic evaluation of a surgical specimen, and (3) presence of fungal organisms within nasal-paranasal mucus as evidenced by the ability to culture fungal organisms from a mucus sample. The 125 non-invasive fungus-induced rhinosinusitis patients were started on an antifungal treatment of about 20 mL of an amphotericin B solution per nostril; two to four times daily for at least three months. The concentration of the amphotericin B solution was about 100 mg per liter of saline or water. A 20 mL bulb was used by the patient to mucoadminister the amphotericin B solution into the patient's nasal-paranasal anatomy. Data were compiled for 53 of the patients who had returned for their three month follow-up analysis.

Penicillium = assay: MIC, macro broth dilution technique (NCCLS) on patient fungal isolates; assay type: cell-based; conditions: 48 hour MIC reading; isolates from rhinosinusitis patients; one isolate per table line
Method: as §1, §2

Cladosporium = assay: as above; assay type: cell-based; conditions: 48 hour MIC reading; isolates from rhinosinusitis patients; one isolate per table line
Method: as §1, §2

[8] = Oral itraconazole capsule, fraction remaining in the bowel lumen (Example 10); assay type: in vivo, human; conditions: 100 mg capsule before bedtime, at least two hours after last meal, without cola
Text: Three out of five consecutive patients with chronic rhinosinusitis reported having a history of colitis. […] Each patient was instructed to take the capsule before bedtime a minimum of two hours after their last meal and without any cola. Food and cola beverages increase absorption of the drug.

chronic asthma patient = assay: Itraconazole nasal irrigations in an asthma patient, symptoms and pulmonary function (Example 8); assay type: in vivo, human
Method: Sputum and nasal-paranasal mucus samples were collected and analyzed.
The concentration of the itraconazole solution was about 100 mg per liter. After a few weeks, the patient took their last course of systemic steroids. About two months after stopping the systemic steroids, the patient also stopped using the topical steroids as well as the bronchodilator.

[9] = after three months, about 20 mL of 100 mg/L solution per nostril two to four times daily
[10] = after treatment, three month follow-up
[11] = after seven months versus before treatment
[12] = sixteen days after starting itraconazole irrigations, score 1 before

C[C@@H]1[C@H](O)[C@@H](C)/C=C/C=C/C=C/C=C/C=C/C=C/C=C/[C@H](O[C@@H]2O[C@H](C)[C@@H](O)[C@H](N)[C@@H]2O)C[C@@H]2O[C@](O)(C[C@@H](O)C[C@@H](O)[C@H](O)CC[C@@H](O)C[C@@H](O)CC(=O)O[C@H]1C)C[C@H](O)[C@H]2C(=O)O [Amphotericin B, amphotericin B]
MIC (Trichoderma): 4 µg/mL (≈ 4.33 µM) | MIC (Geotrichum): 0.1 µg/mL (≈ 0.108 µM) | eosinophil count in mucosal biopsies, all sinuses except the frontal ([1]; after nine months of irrigations twice a day): < 5% | eosinophil count in the frontal sinus biopsy ([1]; after nine months of irrigations, frontal sinus obstructed, presumably not reached): 10% | state of left paranasal sinuses at every post-operative visit (rhinosinusitis patient; left side surgery plus intra- and post-operative irrigation): clear of disease | symptoms after treatment of both sides (rhinosinusitis patient; right side surgery and irrigation of both sides for about seven weeks): symptom-free | CT scan finding, patient with bilateral rhinosinusitis ([2]; after four months, 20 mL of 100 mg/L solution per nostril two times daily, no recent surgery, no steroids, FIG. 1 and 2): complete disappearance of opacity and symptoms characteristic of rhinosinusitis | number of the 33 stage 0 cases confirmed by CT scans ([2]; after three months): Six | number of the 53 patients that went from endoscopic evaluation stage 2 or 3 to stage 0 (no evidence of disease) [2, 9]: 33 | number of the 53 patients that went from endoscopic evaluation stage 2 or 3 to stage 1 [2, 9]: Eleven | number of the 53 patients that did not respond to the treatment ([2]; after three months, endoscopic evaluation): nine | number of the 53 patients giving themselves symptom stage 0 (baseline/no change) [2, 10]: six | number of the 53 patients giving themselves symptom stage 1 (good/improved) [2, 10]: three | number of the 53 patients giving themselves symptom stage 2 (very good/free of symptoms) [2, 10]: 44 | number of different fungal species in mucus after versus before antifungal treatment ([2]; several patients, fungal organism culturing, amphotericin B irrigation of Example 2): remarkably reduced | susceptibility of fungal organisms in mucus of non-responding patients [3]: resistant | endoscopic score after treatment ([4]; irrigations twice a day for four months, score 0 before): 0 | symptom score after treatment ([4]; irrigations twice a day for four months): +1 | endoscopic score after treatment ([4]; irrigations twice a day for fourteen months, score 3 before): 0 | symptom score after treatment ([4]; irrigations twice a day for fourteen months): +2 | endoscopic score after treatment ([4]; irrigations twice, later four times a day, sixteen months, score 1 before): 0 | symptom score after treatment ([4]; irrigations twice, later four times a day, sixteen months): +2 | Endoscopy Score A ([5]; irrigations 1-16 months, 1-2 x day, 0 no evidence of disease, 1 polypoid changes/polyps by endoscopy only, 2 polyps in middle meatus, 3 polyps filling nasal cavity): 0 (10×) and 3 (5×) and 1 (2×) | Symptom Score A ([5]; −2 very bad/much worse, −1 bad/worse, 0 baseline/no change, 1 good/improved, 2 very good/free of symptoms): +1 (6×) and +2 (6×) and 0 (6×) and −2 and 1 | adverse local reaction to nasal irrigations ([6]; third patient, amphotericin B irrigations): burning sensation | number of the 28 patients that stopped taking their asthma medication ([7]; after starting antifungal treatment): 26 | number of the 37 asthmatic patients declaring an improvement or complete elimination of asthma symptoms ([7]; after three months of antifungal treatment (amphotericin B irrigation of Example 2)): 28 | pulmonary function test before versus after antifungal treatment ([7]; four of the 28 improved patients, all four): improved pulmonary function | patients of the 23 formerly on systemic steroids that took steroids after starting antifungal treatment ([7]; human, in vivo): none

CC(=O)N1CCN(c2ccc(OCC3COC(Cn4ccnc4)(c4ccc(Cl)cc4Cl)O3)cc2)CC1 (stereo not drawn) [Ketoconazole, ketoconazole]
MIC (Penicillium): 3.13 µg/mL (≈ 5.89 µM) | MIC (Cladosporium): 0.05 µg/mL (≈ 0.0941 µM)

CCC(C)n1ncn(-c2ccc(N3CCN(c4ccc(OCC5COC(Cn6cncn6)(c6ccc(Cl)cc6Cl)O5)cc4)CC3)cc2)c1=O (stereo not drawn) [Itraconazole, itraconazole]
MIC (Penicillium): 0.25 µg/mL (≈ 0.354 µM) | itraconazole that should remain in the bowel lumen [8]: about 50% | forced expiratory volume in 1 second (FEV1) after treatment (chronic asthma patient; after seven months of irrigations, 3.34 liter before treatment): 4.27 L | forced vital capacity (FVC) after treatment (chronic asthma patient; after seven months of irrigations, 3.99 liter before treatment): 4.80 L | maximal forced expiratory flow (FEFmax) after treatment (chronic asthma patient; after seven months of irrigations, 9.1 liter per second before treatment): 12.6 liter per second | maximum voluntary ventilation (MVV) after treatment (chronic asthma patient; after seven months of irrigations, 119 liter per minute before treatment): 156 liter per minute | improvement of MVV (chronic asthma patient; [11]): 31.90% | increase of FEFmax (chronic asthma patient; [11]): 38.46% | increase of FEV1 (chronic asthma patient; [11]): 27.84% | increase of FVC (chronic asthma patient; [11]): 20.30% | endoscopic score, left side [6, 12]: 1 | endoscopic score, right side [6, 12]: 0 | adverse local reaction to nasal irrigations ([6]; third patient, itraconazole irrigations): did not have any adverse local reaction | symptom score after itraconazole irrigations ([6]; third patient, switched because of adverse reaction to amphotericin B, score −1 before): 0
